According to article PMC9510750, “Design, synthesis and biological evaluation of novel O-substituted tryptanthrin oxime derivatives as c-Jun N-terminal kinase inhibitors” (Frontiers in Pharmacology, 2022):
Like-named read-outs stand apart in the source and are kept apart here.

Legend:
[1] = molecular target: T1, JNK1 (Homo sapiens, UniProt P45983); assay: KINOMEscan ATP site-dependent binding assay, JNK1; conditions: mixture of E/Z isomers, read-out: Binding affinity JNK1 Kd
T1 construct: purchased Eurofins Pharma Discovery (KINOMEscan platform)
Description: (§1) Selected compounds were submitted for dissociation constant (Kd) determination using the KINOMEscan platform (Eurofins Pharma Discovery, San Diego, CA, United States), as described previously ([Karaman et al., 2008]). […] Primary screening at fixed concentrations of compounds was performed in duplicate.

[2] = molecular target: T2, JNK2 (Homo sapiens, UniProt P45984); assay: KINOMEscan ATP site-dependent binding assay, JNK2; conditions: mixture of E/Z isomers, read-out: Binding affinity JNK2 Kd
T2 construct: purchased Eurofins Pharma Discovery (KINOMEscan platform)
Description: as §1

[3] = molecular target: T3, JNK3 (Homo sapiens, UniProt P53779); assay: KINOMEscan ATP site-dependent binding assay, JNK3; conditions: for Kd: KINOMEscan, mixture of E/Z isomers, read-out: Binding affinity JNK3 Kd
T3 construct: purchased Eurofins Pharma Discovery (KINOMEscan platform)
Description: as §1

[4] = test system: NF-κB/AP-1 transcriptional activity in THP-1Blue cells; assay: LPS-induced NF-κB/AP-1 alkaline phosphatase reporter assay in THP-1Blue cells; assay type: cell-based; conditions: Homo sapiens; LPS 250 ng/ml, 24 h
Description: (§2) All cells were cultured at 37°C in a humidified atmosphere containing 5% CO2. THP-1Blue cells obtained from InvivoGen (San Diego, CA, United States) were cultured in RPMI 1640 medium (Mediatech Inc., Herndon, VA, United States) supplemented with 10% (v/v) fetal bovine serum (FBS), 4.5 g/L glucose, 100 μg/ml streptomycin, 100 U/mL penicillin, 100 μg/ml phleomycin (Zeocin), and 10 μg/ml blasticidin S. Human monocyte-macrophage MonoMac-6 cells (Deutsche Sammlung von Mikroorganismen und Zellkulturen GmbH, Braunschweig, Germany) were grown in RPMI 1640 medium supplemented with 10% (v/v) FBS, 10 μg/ml bovine insulin, 100 μg/ml streptomycin, and 100 U/mL penicillin.
Activation of AP-1/NF-κB was measured using an alkaline phosphatase reporter gene assay in THP1-Blue cells. Human monocytic THP-1Blue cells are stably transfected with a secreted embryonic alkaline phosphatase gene that is under the control of a promoter inducible by AP-1/NF-κB. THP-1Blue cells (2 × 10^5 cells/well) were pretreated with test compound or DMSO (1% final concentration) for 30 min, followed by addition of 250 ng/ml LPS (from Escherichia coli K-235; Sigma Chemical Co., St. Louis, MO, United States) for 24 h, and alkaline phosphatase activity was measured in cell supernatants using QUANTI-Blue mix (InvivoGen) with absorbance at 655 nm and compared with positive control samples (LPS). The concentrations of compound that caused 50% inhibition of the AP-1/NF-κB reporter activity (IC50) were calculated.

[5] = test system: IL-6 production in MonoMac-6 cells; assay: LPS-induced IL-6 production in MonoMac-6 cells (ELISA); assay type: cell-based; conditions: Homo sapiens, MONO-MAC-6; LPS 250 ng/ml, 24 h
Description: as §2
(§3) Human IL-6 ELISA kit (BD Biosciences, San Jose, CA, United States) was used to confirm the inhibitory effect of selected compounds on IL-6 production. MonoMac-6 cells were plated in 96-well plates at a density of 2 × 10^5 cells/well in culture medium supplemented with 3% (v/v) endotoxin-free FBS. Cells were pretreated with test compound or DMSO (1% final concentration) for 30 min, followed by addition of 250 ng/ml LPS for 24 h. IC50 values for IL-6 production were calculated by plotting the percentage inhibition against the logarithm of inhibitor concentration (at least five points). Multiplex human cytokine ELISA kit from Anogen (Mississauga, ON, Canada) was used to evaluate various cytokines (IL-1α, IL-1β, IL-6, GM-CSF, MCP-1, IFNγ, and TNF) in the supernatants of MonoMac-6 cells.

[6] = test system: c-Jun (Ser63) phosphorylation in MonoMac-6 cells; assay: LPS-induced c-Jun (Ser63) phosphorylation, Western blotting; assay type: cell-based, human; conditions: 30 min pretreatment, LPS 250 ng/ml 30 min, phospho-c-Jun/total c-Jun
Description: MonoMac-6 monocytic cells (10^7 cells) were incubated with different concentrations of compound 1j (final DMSO concentration of 0.5%) for 30 min at 37°C and then treated with LPS (250 ng/ml) or buffer for another 30 min at 37°C. Cells were washed twice with ice-cold phosphate buffer solution (pH 7.4), and cell lysates were prepared using lysis buffer (Cell Signaling Technology, Danvers, MA, United States). Cell lysates were separated on ExpressPlus 10% PAGE Gels (GenScript, Piscataway, NJ, United States) using TRIS-MOPS running buffer and transferred to nitrocellulose membranes. The blots were blocked overnight at 4°C in TRIS buffer (pH 7.4) + 0.1% Tween-20 (TBST) + 2.5% bovine serum albumin and probed with antibodies against phospho-c-Jun (Ser63) (Cell Signaling Technology), followed by horseradish peroxidase-conjugated secondary antibody (Cell Signaling Technology), and the blots were developed using Super-Signal West Femto chemiluminescent substrate (Thermo Fisher Scientific) and visualized with a FluorChem FC2 imaging system (Alpha Innotech Corporation, San Leandro, CA, United States). For measurement of total c-Jun signal, we stripped and reprobed the same Western blots that were used for phospho-c-Jun blots. […] Quantitation of the luminescent signals were performed using AlphaView software.

[7] = test system: proinflammatory cytokine production in MonoMac-6 cells; assay: Multiplex human cytokine ELISA, LPS-stimulated MonoMac-6 cells; assay type: cell-based; conditions: 10 μM, LPS 250 ng/ml 24 h
Description: as §3

[8] = Solubility in DMSO for the binding affinity assay; assay type: physicochemical; conditions: insufficiently soluble in DMSO for the binding affinity assay
Text: TABLE 1 Binding affinity (Kd) of compounds 1a-o and their inhibitory effect on LPS-induced NF-κB/AP-1 transcriptional activity in THP-1Blue cells and IL-6 production in MonoMac-6 cells. | column: Binding affinity / JNK1

[9] = test system: NF-κB/AP-1 transcriptional activity in THP-1Blue cells; design: method as in Schepetkin et al., 2019; conditions: LPS-stimulated; ref Schepetkin et al., 2019; cited from earlier work
[10] = test system: IL-6 production in MonoMac-6 cells; design: method as in Schepetkin et al., 2019; conditions: LPS-stimulated; ref Schepetkin et al., 2019; cited from earlier work

T2 sequence (P45984 whole entry): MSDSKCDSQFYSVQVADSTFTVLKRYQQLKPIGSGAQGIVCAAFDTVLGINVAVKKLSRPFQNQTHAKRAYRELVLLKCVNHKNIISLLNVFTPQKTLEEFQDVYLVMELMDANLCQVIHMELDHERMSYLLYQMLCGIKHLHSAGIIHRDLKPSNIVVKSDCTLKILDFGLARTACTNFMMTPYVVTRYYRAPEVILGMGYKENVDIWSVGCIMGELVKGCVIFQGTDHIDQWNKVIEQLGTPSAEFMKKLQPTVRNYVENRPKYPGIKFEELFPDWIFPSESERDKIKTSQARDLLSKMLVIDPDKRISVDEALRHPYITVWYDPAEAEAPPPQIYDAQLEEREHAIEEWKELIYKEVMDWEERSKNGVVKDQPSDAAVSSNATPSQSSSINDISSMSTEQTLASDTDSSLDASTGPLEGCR
T3 sequence (P53779 whole entry): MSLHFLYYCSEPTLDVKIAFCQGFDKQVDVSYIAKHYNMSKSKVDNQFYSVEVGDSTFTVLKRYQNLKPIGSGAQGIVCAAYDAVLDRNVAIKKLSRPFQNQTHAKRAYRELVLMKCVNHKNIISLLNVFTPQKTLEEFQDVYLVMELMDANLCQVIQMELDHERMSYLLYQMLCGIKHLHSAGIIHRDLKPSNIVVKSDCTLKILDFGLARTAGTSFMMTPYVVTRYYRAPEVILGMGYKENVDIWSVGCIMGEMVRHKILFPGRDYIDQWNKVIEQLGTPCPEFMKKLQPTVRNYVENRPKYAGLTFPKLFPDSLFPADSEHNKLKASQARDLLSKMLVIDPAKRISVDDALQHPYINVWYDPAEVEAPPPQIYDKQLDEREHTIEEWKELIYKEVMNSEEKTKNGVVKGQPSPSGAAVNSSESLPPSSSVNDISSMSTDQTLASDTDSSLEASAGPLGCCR
T1 sequence (P45983 whole entry): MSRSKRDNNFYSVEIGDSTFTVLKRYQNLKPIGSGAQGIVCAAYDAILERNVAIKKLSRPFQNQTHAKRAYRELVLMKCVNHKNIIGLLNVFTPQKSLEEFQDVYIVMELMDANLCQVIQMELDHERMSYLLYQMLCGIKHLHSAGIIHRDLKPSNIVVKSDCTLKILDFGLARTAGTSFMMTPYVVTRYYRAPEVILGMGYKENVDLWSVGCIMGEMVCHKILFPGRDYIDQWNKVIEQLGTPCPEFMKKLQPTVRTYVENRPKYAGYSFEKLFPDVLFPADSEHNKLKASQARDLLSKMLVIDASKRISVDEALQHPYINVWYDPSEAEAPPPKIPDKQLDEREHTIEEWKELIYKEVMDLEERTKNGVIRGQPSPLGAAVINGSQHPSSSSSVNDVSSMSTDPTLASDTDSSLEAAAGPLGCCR

| SMILES | Kd [1] [µM] | Kd [2] [µM] | Kd [3] [µM] | IC50 [4] [µM] | IC50 [5] [µM] | melting point | also measured |
| --- | --- | --- | --- | --- | --- | --- | --- |
| CC(=O)ON=C1c2ccccc2-n2c1nc1ccccc1c2=O [Compound 1j, 6-(acetoxyimino)indolo[2,1-b]quinazolin-12(6H)-one] | 0.34 ± 0.04 | 0.49 ± 0.01 | 0.18 ± 0.04 | 0.8 ± 0.2 | 1.7 ± 0.1 | 262 °C | Inhibition of LPS-induced c-Jun (S63) phosphorylation [6]: dose-dependent inhibition; Secretion of GM-CSF ([7]; vs DMSO-treated control): completely inhibited; Secretion of IL-1α ([7]; vs DMSO-treated control): completely inhibited; Secretion of IL-1β ([7]; vs DMSO-treated control): completely inhibited; Secretion of IL-6 ([7]; vs DMSO-treated control): completely inhibited; Secretion of MCP-1 ([7]; vs DMSO-treated control): completely inhibited; Secretion of TNF ([7]; vs DMSO-treated control): completely inhibited; Effect on IFN-γ production ([7]; low production of this cytokine after LPS): inconclusive |
| CC(C)(C)ON=C1c2ccccc2-n2c1nc1ccccc1c2=O [Compound 1d, 6-(tert-butoxyimino)indolo[2,1-b]quinazolin-12(6H)-one] | 9.3 ± 0.5 | 12 ± 1.4 | 2.3 ± 0.3 | ≥ 50 | ≥ 50 | 229 °C |  |
| O=c1c2ccccc2nc2n1-c1ccccc1/C2=N\O [TRYP-Ox] |  |  |  |  |  |  | IC50 [9]: 3.8 ± 1.1 µM; IC50 [10]: 3.2 ± 1.2 µM |
| O=c1c2ccccc2nc2n1-c1ccccc1C2=NOCc1c(F)c(F)c(F)c(F)c1F [Compound 1g, 6-(((pentafluorophenyl)methoxy)imino)indolo[2,1-b]quinazolin-12(6H)-one] |  |  | ≥ 30 | ≥ 50 | ≥ 50 | 183 °C |  |
| N#CCON=C1c2ccccc2-n2c1nc1ccccc1c2=O [Compound 1e, 2-(((12-oxoindolo[2,1-b]quinazolin-6(12H)-ylidene)amino)oxy)acetonitrile] | 19.5 ± 3.5 | 17.5 ± 2.1 | 1.5 ± 0.6 | ≥ 50 | ≥ 50 | 224 °C | JNK-3 selectivity over JNK-1 ([3]; ratio of binding affinities): > 10 fold; JNK-3 selectivity over JNK-2 ([3]; ratio of binding affinities): > 10 fold |
| CCON=C1c2ccccc2-n2c1nc1ccccc1c2=O [Compound 1b, 6-(ethoxyimino)indolo[2,1-b]quinazolin-12(6H)-one] | 3.2 ± 1.2 | 5.4 ± 0.6 | 1.2 ± 0.4 | ≥ 50 | ≥ 50 | 117 °C |  |
| O=c1c2ccccc2nc2n1-c1ccccc1C2=NNc1ccccc1 [Compound 1n, 6-(2-phenylhydrazono)indolo[2,1-b]quinazolin-12(6H)-one] |  |  |  | ≥ 50 | ≥ 50 | 223 °C | Solubility [8]: Poor solubility ^b |

Continued, in another order:

| Kd [1] [µM] | Kd [2] [µM] | Kd [3] [µM] | IC50 [4] [µM] | IC50 [5] [µM] | melting point | SMILES | also measured |
| --- | --- | --- | --- | --- | --- | --- | --- |
| 4 ± 0.9 | 3.9 ± 0.4 | 1.5 ± 0.1 | ≥ 50 | ≥ 50 | 199 to 200 °C | O=c1c2ccccc2nc2n1-c1ccccc1C2=NOCc1ccccn1 [Compound 1i, 6-((pyridin-2-ylmethoxy)imino)indolo[2,1-b]quinazolin-12(6H)-one] |  |
| 3.6 ± 0.7 | 4.1 ± 0.1 | 0.85 ± 0.01 | 18.9 ± 1.8 | ≥ 50 | 163 °C | C=CCON=C1c2ccccc2-n2c1nc1ccccc1c2=O [Compound 1c, 6-((allyloxy)imino)indolo[2,1-b]quinazolin-12(6H)-one] |  |
|  |  |  | ≥ 50 | ≥ 50 | 219 °C | O=c1c2ccccc2nc2n1-c1ccccc1C2=NOCc1ccc([N+](=O)[O-])cc1 [Compound 1h, 6-(((4-nitrobenzyl)oxy)imino)indolo[2,1-b]quinazolin-12(6H)-one] | Solubility [8]: Poor solubility ^b |
|  |  |  | ≥ 50 | ≥ 50 | > 400 °C (dec.) | NN=C1c2ccccc2-n2c1nc1ccccc1c2=O [Compound 1m, 6-hydrazonoindolo[2,1-b]quinazolin-12(6H)-one] | Solubility [8]: Poor solubility ^b |
| 3.1 ± 0.8 | 5.6 ± 0.4 | 1.4 ± 0.2 | 20.8 ± 5.3 | 23.5 ± 1.8 | 218 °C | CON=C1c2ccccc2-n2c1nc1ccccc1c2=O [Compound 1a, 6-(methoxyimino)indolo[2,1-b]quinazolin-12(6H)-one] |  |
|  |  | ≥ 30 | ≥ 50 | ≥ 50 | 206 °C | O=c1c2ccccc2nc2n1-c1ccccc1C2=NOCc1ccccc1 [Compound 1f, 6-((benzyloxy)imino)indolo[2,1-b]quinazolin-12(6H)-one] |  |
|  |  |  | 3.3 ± 0.1 | 6.6 ± 1.2 | 266 °C | NC(=O)NN=C1c2ccccc2-n2c1nc1ccccc1c2=O [Compound 1o, 2-(12-oxoindolo[2,1-b]quinazolin-6(12H)-ylidene)hydrazinecarboxamide] |  |
